In patent US20220339143A1, “TAK-925 FOR USE IN TREATING NARCOLEPSY” (Takeda Pharmaceutical Company Limited, priority 2019, published 2022):
Read-outs that look alike come from different tables or passages of the source.

Experiment: Single dose PK in healthy subjects (Cohorts 1, 2, S1 and S2), plasma
Assay type: in vivo, human
Details: human, plasma
Method: This study investigates (i) the safety and tolerability of Compound A (methyl (2R,3S)-3-((methylsulfonyl)amino)-2-(((cis-4-phenylcyclohexyl)oxy)methyl)piperidine-1-carboxylate) when a single dose given as a 9 hour continuous IV infusion is administered to healthy adults, healthy elderly subjects and patients with narcolepsy type 1 (NT1); (ii) the pharmacokinetics of Compound A when a single dose given as a 9 hour continuous IV infusion is administered to healthy adults, healthy elderly subjects and patients with narcolepsy type 1; and (iii) the pharmacodynamics (PD) effects of Compound A, primarily by evaluation of the sleep latency on MWT when a single dose given as a 9 hour continuous IV infusion is administered to patients with narcolepsy type 1.
Pharmacokinetics: Concentrations of Compound A in plasma, and CSF, and pharmacokinetics parameters.
On average, the time to reach the plateau appeared to be approximately 3 to 4 hours after the start of infusion. […] After switching off the IV infusion, Compound A plasma concentrations declined rapidly and in a biphasic manner with a mean terminal disposition phase t1/2z ranging approximately from 3.4 to 5.1 hours across all doses. […] Table 5 provides a summary of plasma concentrations of Compound A after a single IV infusion in healthy subjects. Table 6 provides a summary of pharmacokinetic parameters of Compound A after a single IV infusion in healthy subjects.

[1] = intravenous, 180 mg, read-out: Plasma concentration, Maximum
[2] = intravenous, 180 mg, read-out: Plasma concentration, Mean
[3] = intravenous, 180 mg, read-out: Plasma concentration, Median
[4] = intravenous, 180 mg, read-out: Plasma concentration, Minimum
[5] = intravenous, 180 mg, read-out: Plasma concentration, Q1
[6] = intravenous, 180 mg, read-out: Plasma concentration, Q3
[7] = intravenous, 240 mg, read-out: Plasma concentration, Mean
[8] = intravenous, 240 mg, read-out: Plasma concentration, Minimum
[9] = intravenous, 240 mg, read-out: Plasma concentration, Q1

Compound: COC(=O)N1CCC[C@H](NS(C)(=O)=O)[C@@H]1CO[C@H]1CC[C@@H](c2ccccc2)CC1 [Compound A, methyl (2R,3S)-3-((methylsulfonyl)amino)-2-(((cis-4-phenylcyclohexyl)oxy)methyl)piperidine-1-carboxylate]
- concentration at 1 h [1]: 265 ng/mL
- concentration at 1 h [2]: 216 ng/mL
- concentration at 1 hr [3]: 215 ng/mL
- concentration at 1 hr [4]: 173 ng/mL
- concentration at 1 hr [5]: 201 ng/mL
- concentration at 1 h [6]: 229 ng/mL
- concentration at 1.5 h [1]: 304 ng/mL
- concentration at 1.5 h [2]: 255 ng/mL
- concentration at 1.5 hr [3]: 242 ng/mL
- concentration at 1.5 hr [4]: 224 ng/mL
- concentration at 1.5 hr [5]: 228 ng/mL
- concentration at 1.5 h [6]: 290 ng/mL
- concentration at 2 h [1]: 341 ng/mL
- concentration at 2 h [2]: 294 ng/mL
- concentration at 2 hr [3]: 292 ng/mL
- concentration at 2 hr [4]: 251 ng/mL
- concentration at 2 hr [5]: 271 ng/mL
- concentration at 2 h [6]: 320 ng/mL
- concentration at 3 h [1]: 355 ng/mL
- concentration at 3 h [2]: 315 ng/mL
- concentration at 3 hr [3]: 314 ng/mL
- concentration at 3 hr [4]: 276 ng/mL
- concentration at 3 hr [5]: 307 ng/mL
- concentration at 3 h [6]: 324 ng/mL
- concentration at 4 h [1]: 361 ng/mL
- concentration at 4 hr [2]: 328 ng/mL
- concentration at 4 hr [3]: 325 ng/mL
- concentration at 4 hr [4]: 293 ng/mL
- concentration at 4 hr [5]: 304 ng/mL
- concentration at 4 h [6]: 358 ng/mL
- concentration at 6 h [1]: 322 ng/mL
- concentration at 6 hr [2]: 292 ng/mL
- concentration at 6 hr [3]: 292 ng/mL
- concentration at 6 hr [4]: 252 ng/mL
- concentration at 6 hr [5]: 285 ng/mL
- concentration at 6 h [6]: 311 ng/mL
- concentration at 8 h [1]: 337 ng/mL
- concentration at 8 h [2]: 300 ng/mL
- concentration at 8 hr [3]: 292 ng/mL
- concentration at 8 hr [4]: 275 ng/mL
- concentration at 8 hr [5]: 277 ng/mL
- concentration at 8 hr [6]: 330 ng/mL
- concentration at 9 h (intravenous, 180 mg, 9 hr, read-out: Plasma concentration, Maximum): 364 ng/mL
- concentration at 9 h (intravenous, 180 mg, 9 hr, read-out: Plasma concentration, Mean): 325 ng/mL
- concentration at 9 hr (intravenous, 180 mg, 9 hr, read-out: Plasma concentration, Median): 316 ng/mL
- concentration at 9 hr (intravenous, 180 mg, 9 hr, read-out: Plasma concentration, Minimum): 285 ng/mL
- concentration at 9 hr (intravenous, 180 mg, 9 hr, read-out: Plasma concentration, Q1): 311 ng/mL
- concentration at 9 hr (intravenous, 180 mg, 9 hr, read-out: Plasma concentration, Q3): 358 ng/mL
- concentration at 0.5 h (intravenous, 240 mg, 0.5 hr, read-out: Plasma concentration, Mean): 292 ng/mL
- concentration at 0.5 hr (intravenous, 240 mg, 0.5 hr, read-out: Plasma concentration, Minimum): 228 ng/mL
- concentration at 0.5 hr (intravenous, 240 mg, 0.5 hr, read-out: Plasma concentration, Q1): 230 ng/mL
- concentration at 1 h [7]: 345 ng/mL
- concentration at 1 hr [8]: 265 ng/mL
- concentration at 1 hr [9]: 286 ng/mL
- concentration at 1.5 h [7]: 388 ng/mL
- concentration at 1.5 hr [8]: 315 ng/mL
- concentration at 1.5 hr [9]: 333 ng/mL
- concentration at 2 h [7]: 403 ng/mL
- concentration at 2 hr [8]: 337 ng/mL
- concentration at 2 hr [9]: 349 ng/mL
- concentration at 3 h [7]: 456 ng/mL
- concentration at 3 hr [8]: 393 ng/mL
- concentration at 3 hr [9]: 400 ng/mL
- concentration at 4 h [7]: 493 ng/mL
- concentration at 4 hr [8]: 388 ng/mL
- concentration at 4 hr [9]: 423 ng/mL
- concentration at 6 h [7]: 428 ng/mL
- concentration at 6 hr [8]: 335 ng/mL
- concentration at 6 hr [9]: 366 ng/mL
- concentration at 8 h [7]: 474 ng/mL
- concentration at 8 h [8]: 393 ng/mL
- concentration at 8 hr [9]: 409 ng/mL
- concentration at 9 h (intravenous, 240 mg, 9 hr, read-out: Plasma concentration, Mean): 497 ng/mL
- concentration at 9 hr (intravenous, 240 mg, 9 hr, read-out: Plasma concentration, Minimum): 417 ng/mL
- concentration at 9 hr (intravenous, 240 mg, 9 hr, read-out: Plasma concentration, Q1): 452 ng/mL
- AUC (iv, 7 mg, 7 mg single IV infusion, healthy subjects, read-out: AUC24 Geo Mean): 140 ng·h/mL
- AUC (iv, 7 mg, 7 mg single IV infusion, healthy subjects, read-out: AUC24 Mean): 142 ng·h/mL
- AUC (iv, 7 mg, 7 mg single IV infusion, healthy subjects, read-out: AUC24 Median): 142 ng·h/mL
- AUC(0-inf) (iv, 7 mg, 7 mg single IV infusion, healthy subjects, read-out: AUCinf Geo Mean): 142 ng·h/mL
- AUC(0-inf) (iv, 7 mg, 7 mg single IV infusion, healthy subjects, read-out: AUCinf Mean): 143 ng·h/mL
- AUC(0-inf) (iv, 7 mg, 7 mg single IV infusion, healthy subjects, read-out: AUCinf Median): 146 ng·h/mL
- AUC(0-t) (iv, 7 mg, 7 mg single IV infusion, healthy subjects, read-out: AUClast Geo Mean): 138 ng·h/mL
- AUC(0-t) (iv, 7 mg, 7 mg single IV infusion, healthy subjects, read-out: AUClast Mean): 140 ng·h/mL
- AUC(0-t) (iv, 7 mg, 7 mg single IV infusion, healthy subjects, read-out: AUClast Median): 142 ng·h/mL
- clearance (iv, 7 mg, 7 mg single IV infusion, healthy subjects, read-out: CL Mean (converted)): 833 mL/min
- concentration at 9 h (iv, 7 mg, 7 mg single IV infusion, healthy subjects, read-out: Ceoi Geo Mean): 13.4 ng/mL
- concentration at 9 h (iv, 7 mg, 7 mg single IV infusion, healthy subjects, read-out: Ceoi Mean): 13.5 ng/mL
- concentration at 9 h (iv, 7 mg, 7 mg single IV infusion, healthy subjects, read-out: Ceoi Median): 13.9 ng/mL
- Cmax (iv, 7 mg, 7 mg single IV infusion, healthy subjects, read-out: Cmax Geo Mean): 16.7 ng/mL
- Cmax (iv, 7 mg, 7 mg single IV infusion, healthy subjects, read-out: Cmax Mean): 16.9 ng/mL
- Cmax (iv, 7 mg, 7 mg single IV infusion, healthy subjects, read-out: Cmax Median): 16.5 ng/mL
- Vd (iv, 7 mg, 7 mg single IV infusion, healthy subjects, read-out: Vss Mean): 82.9 L
- Vd (iv, 7 mg, 7 mg single IV infusion, healthy subjects, read-out: Vz Mean): 292 L
- Vd (iv, 7 mg, 7 mg single IV infusion, healthy subjects, read-out: Vz Median): 303 L
- Tmax (iv, 7 mg, 7 mg single IV infusion, healthy subjects, read-out: tmax Mean): 3 h
- Tmax (iv, 7 mg, 7 mg single IV infusion, healthy subjects, read-out: tmax Median): 3 h
- AUC (iv, 14 mg, 14 mg single IV infusion, healthy subjects, read-out: AUC24 Geo Mean): 323 ng·h/mL
- AUC (iv, 14 mg, 14 mg single IV infusion, healthy subjects, read-out: AUC24 Mean): 326 ng·h/mL
- AUC (iv, 14 mg, 14 mg single IV infusion, healthy subjects, read-out: AUC24 Median): 322 ng·h/mL
- AUC(0-inf) (iv, 14 mg, 14 mg single IV infusion, healthy subjects, read-out: AUCinf Geo Mean): 328 ng·h/mL
- AUC(0-inf) (iv, 14 mg, 14 mg single IV infusion, healthy subjects, read-out: AUCinf Mean): 331 ng·h/mL
